From ChEMBL document CHEMBL6096679, “Recent Progress in the Development of Glucose Transporter (GLUT) Inhibitors” (J Med Chem, 2025)
Blank lines part the entries; values can stand above or below the molecule they belong to.

Key:
3T3-L1 = assay: Induction of glucose uptake in mouse 3T3-L1 cells assessed as increase in glucose uptake; assay type: functional, cell-based
[1] = Induction of GLUT4 translocation in mouse 3T3-L1 cells Cytosol by Western blot analysis; assay type: subcellular
[2] = Induction of GLUT1 translocation in mouse 3T3-L1 cells by Western blot analysis; assay type: cell-based
[3] = biological target: T1, Solute carrier family 2, facilitated glucose transporter member 1 (Homo sapiens, UniProt P11166); assay: Inhibition of GLUT1 in human wild-type DLD-1 cells assessed as reduction in ATP level measured after 90 mins by Celltiter-glo luminescent assay; assay type: cell-based
T1 sequence (P11166 whole entry): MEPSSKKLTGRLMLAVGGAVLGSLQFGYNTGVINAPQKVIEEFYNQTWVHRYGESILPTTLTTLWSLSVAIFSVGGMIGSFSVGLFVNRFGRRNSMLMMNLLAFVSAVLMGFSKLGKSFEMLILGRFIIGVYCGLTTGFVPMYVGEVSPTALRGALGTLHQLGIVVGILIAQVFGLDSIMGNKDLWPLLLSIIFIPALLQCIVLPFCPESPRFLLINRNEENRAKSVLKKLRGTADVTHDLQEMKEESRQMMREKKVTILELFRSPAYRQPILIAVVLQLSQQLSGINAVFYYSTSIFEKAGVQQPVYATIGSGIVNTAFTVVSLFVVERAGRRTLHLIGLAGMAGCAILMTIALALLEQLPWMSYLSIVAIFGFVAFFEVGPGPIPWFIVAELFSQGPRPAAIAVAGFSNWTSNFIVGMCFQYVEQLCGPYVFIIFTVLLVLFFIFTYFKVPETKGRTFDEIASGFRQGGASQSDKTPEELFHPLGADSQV

A549 = assay: Inhibition of glycolysis in human A549 cells assessed as decrease in HK2 activity incubated for 48 hrs by spectrophotometric assay; assay type: functional, cell-based; conditions: A549, 48 h
[4] = biological target: T2, Solute carrier family 2, facilitated glucose transporter member 9 (Homo sapiens, UniProt Q9NRM0); assay: Inhibition of GLUT9 (unknown origin) overexpressed in uric acid-induced HEK293 cells by patch clamp analysis; assay type: cell-based
T2 sequence (Q9NRM0 whole entry): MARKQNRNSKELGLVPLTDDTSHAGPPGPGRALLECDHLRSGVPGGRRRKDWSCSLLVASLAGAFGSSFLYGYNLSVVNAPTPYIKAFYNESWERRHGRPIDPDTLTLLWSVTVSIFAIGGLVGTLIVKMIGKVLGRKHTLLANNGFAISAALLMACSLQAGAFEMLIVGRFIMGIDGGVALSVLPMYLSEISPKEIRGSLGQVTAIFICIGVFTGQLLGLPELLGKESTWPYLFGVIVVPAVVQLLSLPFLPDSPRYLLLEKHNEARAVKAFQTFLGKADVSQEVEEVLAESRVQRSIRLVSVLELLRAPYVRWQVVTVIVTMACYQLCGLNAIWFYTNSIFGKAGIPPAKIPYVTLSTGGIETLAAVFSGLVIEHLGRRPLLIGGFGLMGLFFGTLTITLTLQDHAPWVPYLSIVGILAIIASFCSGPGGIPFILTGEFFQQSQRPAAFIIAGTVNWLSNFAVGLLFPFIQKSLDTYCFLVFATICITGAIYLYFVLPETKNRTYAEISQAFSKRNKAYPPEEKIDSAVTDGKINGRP

Structure (SMILES): O=C(Oc1cccc(OC(=O)c2cc(O)c(O)c(O)c2)c1OC(=O)c1cc(O)c(O)c(O)c1)c1cc(O)c(O)c(O)c1
IC50 (3T3-L1): 5 µM

Structure (SMILES): CCOc1ccc2nc(-c3cccc(OCC(=O)NC(C)C)c3)nc(Nc3ccc(-c4cn[nH]c4)cc3)c2c1
IC50 [2]: 115 nM

Structure (SMILES): CC(C)(C)c1ccc(S(=O)(=O)NCc2ccc(C(=O)Nc3cccnc3)cc2)cc1
IC50 [3]: 1 µM

Structure (SMILES): COc1ccccc1N1CCN(C(=O)c2cnn(-c3nccc(-c4cccs4)n3)c2C2CC2)CC1
IC50 [3]: 2.87 µM

Structure (SMILES): O=C(COc1cccc(-c2nc3c(c(Nc4ccc(-c5cn[nH]c5)cc4)n2)COC3)c1)NC1CCC1
IC50 (A549): < 100 nM

Structure (SMILES): CCOc1cccc2c1O[C@]1(C)C[C@@H]2NC(=O)N1c1cccc(C(=O)NCCc2ccc(C)cc2)c1
IC50 [3]: 0.162 µM
IC50 [4]: 0.32 µM

Structure (SMILES): C/C(=N\O)c1ccc(-c2ccc(O)c(Cl)c2)c(Cl)c1O
IC50 [3]: 0.29 µM

Structure (SMILES): COc1ccc(-c2ccc(O)c(/C=N/O)c2)cc1F
IC50 [3]: 10.8 µM

Structure (SMILES): OC[C@H]1OC(O)[C@H](O)[C@@H](O)[C@@H]1O (stereo partly drawn) [DEXTROSE]
IC50 (3T3-L1): 1.4 µM

Structure (SMILES): Cc1cccc(NC(=O)CN2C(=O)N/C(=C/c3cc(C)n(-c4ccc(O)cc4)c3C)C2=O)c1
IC50 [3]: 10.6 µM

Structure (SMILES): Cc1cc(NC(=O)CCC2Cc3ccccc3NC2=O)nc(-c2ccccc2)n1 (stereo not drawn)
IC50 [1]: 3.88 µM

Structure (SMILES): CC(=O)CC(=O)Nc1ccc(Cl)c(C(F)(F)F)c1
IC50 (3T3-L1): 68 µM

Structure (SMILES): CC/C=C\C/C=C\C/C=C\C/C=C\C/C=C\C/C=C\CCC(=O)O [DOCONEXENT]
IC50 (3T3-L1): 0.8 µM

Structure (SMILES): OC[C@H]1O[C@](O)(CO)[C@@H](O)[C@@H]1O
IC50 (3T3-L1): 3.9 µM

Structure (SMILES): O=C(Oc1cccc(F)c1OC(=O)c1cccc(O)c1)c1cccc(O)c1
IC50 (3T3-L1): 0.5 µM

Structure (SMILES): N[C@H]1C(O)O[C@H](CO)[C@@H](O)[C@@H]1O (stereo partly drawn) [GLUCOSAMINE]
IC50 (3T3-L1): 0.9 µM

Structure (SMILES): CC(CN1C(=O)S/C(=C\c2ccc(O)c(C(F)(F)F)c2)C1=O)(CC(F)(F)F)CC(F)(F)F
IC50 [3]: 11.4 µM

Structure (SMILES): FC(F)(F)c1cc(NC(=S)NCc2ccccc2)ccc1Cl
IC50 (3T3-L1): 61 µM

Structure (SMILES): CCCCC1C(=O)NC2Cc3cccc4ccc(cc34)N1C(=O)COc1cccc(c1)[C@@H](CCc1ccc(OC)c(OC)c1)OC(=O)C1CCCCN1C(=O)C(=O)C(C)(C)COC(=O)/C=C\CCN(C)C(=O)CNC(=O)C(COC(C)(C)C)N(C)C2=O (stereo partly drawn)
IC50 (A549): < 100 nM

Structure (SMILES): O=C(Oc1cccc(OC(=O)c2cccc(O)c2)c1OC(=O)c1cccc(O)c1)c1cccc(O)c1
IC50 (3T3-L1): 0.3 µM

Structure (SMILES): COc1ccc(-n2cc(-c3ccc(Cl)cc3)nc2NC(=O)CN(Cc2ccccc2)C(=O)c2ccc(C)cc2)cc1OC
IC50 [3]: 1.89 µM

Structure (SMILES): COc1ccc(CN(CC[C@@H](c2ccccc2)[C@H]2CCOC(C)(C)C2)C(=O)c2ccco2)cc1OC
IC50 (3T3-L1): 0.11 µM

Structure (SMILES): O=C1CC(c2cccc3[nH]ccc23)c2ccc(NC(=O)c3cccnc3)cc2N1 (stereo not drawn)
IC50 (3T3-L1): 28 µM

Structure (SMILES): CS(=O)(=O)c1ccc(Nc2ccc3c(c2)OCO3)c([N+](=O)[O-])c1
IC50 [1]: 5.8 µM

Structure (SMILES): O=C(Nc1ccc(Cl)c(C(F)(F)F)c1)c1ccc(Cl)cc1
IC50 (3T3-L1): 61 µM

Structure (SMILES): Cc1nn(C(=O)c2ccncc2)c(C)c1/N=N/c1ccc(Cl)cc1
IC50 [3]: 11.1 µM

Structure (SMILES): O=c1cc(-c2ccc(O)cc2)oc2cc(O)cc(O)c12 [APIGENIN]
IC50 [4]: 2.63 µM

Structure (SMILES): O=C(CN1C(=O)S/C(=C/c2ccccc2)C1=O)Nc1nc2c(Cl)cccc2s1
IC50 [2]: 12600 nM

Structure (SMILES): O=C(CN1C(=O)S/C(=C/c2ccc(Cl)cc2)C1=O)Nc1ccc(Cl)cc1C(F)(F)F
IC50 [2]: 5400 nM

Structure (SMILES): CCC(C)[C@H]1C(=O)NCC(=O)N(C)CC/C=C/C(=O)OCC(C)(C)C(=O)C(=O)N2CCCC[C@H]2C(=O)O[C@H](CCc2ccc(OC)c(OC)c2)c2cccc(c2)NC(=O)CCC(=O)N(C)[C@@H](CC(C)C)C(=O)N[C@H](Cc2ccccc2)C(=O)N1C (stereo partly drawn)
IC50 [2]: 78 nM

Structure (SMILES): O=C(COc1cccc(-c2nc3c(c(Nc4ccc(-c5cn[nH]c5)cc4)n2)COC3)c1)NC1CCCC1
IC50 (A549): < 100 nM

Structure (SMILES): C=C1[C@@H](C)[C@H]2[C@H](Cc3ccccc3)NC(=O)[C@]23OC(=O)/C=C/[C@H](O)CCC[C@@H](C)C/C=C/[C@H]3[C@@H]1O [CYTOCHALASIN B]
IC50 [4]: 0.44 µM

Structure (SMILES): O=C1CC(c2ccc(-c3cc[nH]n3)s2)c2cc(N3CCNC3=O)ccc2N1 (stereo not drawn)
IC50 (3T3-L1): 33 µM

Now from value to molecule:

IC50 [1]: 7.01 µM
Structure (SMILES): CC(=O)Nc1ccc(S(=O)(=O)Nc2ccc(Nc3cc(N(C)C)nc(C)n3)cc2)cc1

IC50 [1]: 6.94 µM
Structure (SMILES): Cc1ccccc1CN(Cc1nnc(C(C)(C)C)o1)c1ccc2nc(O)[nH]c2c1

IC50 [2]: 0.09 nM
Structure (SMILES): COc1ccccc1N1CCN(c2ncnc3c2cnn3-c2cc(F)cc(F)c2)CC1

IC50 [3]: 1.67 µM
Structure (SMILES): COc1ccc(-c2ccc(/C(C)=N/O)c(O)c2Cl)cc1

IC50 [2]: 2600 nM
Structure (SMILES): Cc1ccc(CNc2ccc(Cl)cc2NCc2ccc(C)c(O)c2)cc1O

IC50 [3]: 6.08 µM
Structure (SMILES): COCc1c(C(=O)N2CCN(c3ccccc3)CC2)cnn1-c1ncc2c(n1)-c1ccccc1CCC2

IC50 [3]: 6.32 µM
Structure (SMILES): O=C(COc1ccc(-c2csc3ccccc23)cc1CN1CCN(c2ccccn2)CC1)NCc1nccs1

IC50 [4]: 49 µM
Structure (SMILES): O=C(CCc1ccc(O)cc1)c1c(O)cc(O)cc1O [PHLORETIN]

IC50 [4]: 19 µM
Structure (SMILES): COc1cc(/C=C/C(=O)CC(=O)/C=C/c2ccc(O)c(OC)c2)ccc1O [CURCUMIN]

IC50 [2]: 11400 nM
Structure (SMILES): O=C(CN1C(=O)S/C(=C/c2ccco2)C1=O)Nc1nc2ccccc2s1

IC50 (A549): < 100 nM
Structure (SMILES): CC(C)NC(=O)COc1cccc(-c2nc(Nc3ccc(-c4cn[nH]c4)cc3)c3sccc3n2)c1

IC50 [2]: 14700 nM
Structure (SMILES): O=C(CN1C(=O)S/C(=C/c2ccco2)C1=O)Nc1ccc(Cl)c(Cl)c1

IC50 [2]: 6.2 nM
Structure (SMILES): C[C@@]1(C(=O)NCc2cccnc2)Cn2nc(-c3ccccc3)cc2C(=O)N1Cc1ccc(N2CCOCC2)cc1

IC50 [2]: 0.2 nM
Structure (SMILES): C[C@H](NC(=O)[C@H](Cc1ccc(F)cc1)NC(=O)Cc1cccc(O)c1)c1ccccc1

IC50 [3]: 0.61 µM
Structure (SMILES): COc1ccc(C2=CC(c3ccc(F)cc3)N(C(=O)CSc3c(C)[nH]c4ccccc34)N2)cc1 (stereo not drawn)

IC50 [3]: 7 µM
Structure (SMILES): C/C(=N\O)c1ccc(-c2ccc(O)c(C)c2)c(Cl)c1O

IC50 [3]: 7.07 µM
Structure (SMILES): CN(Cc1cccc2ncccc12)C(=O)c1cnn(-c2ncc3c(n2)-c2ccccc2CC3)c1C1CC1

IC50 [2]: 0.14 nM
Structure (SMILES): COc1ccc(CC(=O)N[C@@H](Cc2cccc(Br)c2)C(=O)N[C@@H](C)c2ccccc2)cc1

IC50 (A549): < 100 nM
Structure (SMILES): CC(C)NC(=O)COc1cccc(-c2nc3c(c(Nc4ccc(-c5cn[nH]c5)cc4)n2)COC3)c1

IC50 (A549): < 100 nM
Structure (SMILES): O=C(COc1cccc(-c2nc(Nc3ccc(-c4cn[nH]c4)cc3)c3sccc3n2)c1)NC1CCCC1

IC50 [3]: 38 µM
Structure (SMILES): O=C(Oc1ccc2ccc(=O)oc2c1OC(=O)c1ccc(O)cc1)c1ccc(O)cc1

IC50 [2]: 26600 nM
Structure (SMILES): O=C(CN1C(=O)S/C(=C/c2ccc(F)cc2)C1=O)Nc1cccc(C(F)(F)F)c1

IC50 [3]: 0.0596 µM
IC50 [4]: 11.4 µM
Structure (SMILES): CCOC(=O)Cn1c2c(c3ccccc31)C[C@@H]1C[C@@H]2[C@H](OC)CN1C(=O)c1cccnc1SC
